This note sets out measurements from ChEMBL document CHEMBL5550150, “Discovery of 9H-pyrimido[4,5-b]indole derivatives as dual RET/TRKA inhibitors” (Bioorg Med Chem, 2024).

The term IC50 denotes the point on the concentration scale where inhibition reaches its midpoint. Higher therefore signals a need for much substance.

Molecules are shown by their SMILES. Activity calls are given as the source filed them. The calls are words filed in the database; no cut-off is given here.

For test [1], the system named is LC-2-ad. As to the kind of experiment: Antiproliferative activity against human LC-2-ad cells harbouring RET assessed as reduction in cell viability. The format is functional.
Test [2] concerns KM12. In words: Antiproliferative activity against human KM12 cells harbouring TRK assessed as reduction in cell viability. It is filed as functional.
Test [3] deals with A549. As to the kind of experiment: Antiproliferative activity against human A549 cells harbouring KRAS assessed as reduction in cell viability. It is filed as functional.
The test system of test [4] is KM12. In words: Induction of cell cycle arrest in human KM12 cells assessed as accumulation of cells at G1 phase at 1 uM incubated for 24 hrs by flow cytometry analysis. The format is functional, cell-based.
Test [5] concerns the target T1, High affinity nerve growth factor receptor (Homo sapiens, UniProt P04629). As to the kind of experiment: Inhibition of TRK autophosphorylation (unknown origin).
Target sequence in this assay (P04629 33-796 limits assumed): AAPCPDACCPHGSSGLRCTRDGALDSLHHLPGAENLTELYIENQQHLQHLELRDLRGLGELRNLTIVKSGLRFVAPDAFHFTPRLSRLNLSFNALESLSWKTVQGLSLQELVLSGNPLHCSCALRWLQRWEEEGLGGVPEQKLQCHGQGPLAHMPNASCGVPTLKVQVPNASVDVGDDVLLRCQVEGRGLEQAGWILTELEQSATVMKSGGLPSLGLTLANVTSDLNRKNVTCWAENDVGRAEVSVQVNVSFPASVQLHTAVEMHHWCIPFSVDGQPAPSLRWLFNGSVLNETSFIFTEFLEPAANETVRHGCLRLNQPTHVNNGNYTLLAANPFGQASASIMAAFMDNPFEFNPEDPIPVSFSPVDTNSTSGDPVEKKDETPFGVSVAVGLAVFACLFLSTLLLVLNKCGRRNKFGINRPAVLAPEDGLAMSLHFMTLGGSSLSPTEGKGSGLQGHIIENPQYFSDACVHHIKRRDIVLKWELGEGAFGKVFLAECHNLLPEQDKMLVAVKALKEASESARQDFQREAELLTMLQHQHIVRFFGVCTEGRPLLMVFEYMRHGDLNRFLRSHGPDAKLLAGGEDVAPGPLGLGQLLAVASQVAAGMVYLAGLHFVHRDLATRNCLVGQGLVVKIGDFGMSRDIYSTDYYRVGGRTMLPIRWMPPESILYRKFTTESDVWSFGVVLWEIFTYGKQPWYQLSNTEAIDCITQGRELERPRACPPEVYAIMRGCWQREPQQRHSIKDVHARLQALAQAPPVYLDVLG
Test [6] deals with LC-2-ad. In words: Induction of cell cycle arrest in human LC-2-ad cells assessed as accumulation of cells at G1 phase at 1 uM incubated for 24 hrs by flow cytometry analysis. It is filed as functional, cell-based. Background: A flow cytometer gives signals particle by particle.
Test [7] deals with T1, High affinity nerve growth factor receptor. As to the kind of experiment: Inhibition of TRK (unknown origin).
Target sequence in this assay (P04629 whole entry): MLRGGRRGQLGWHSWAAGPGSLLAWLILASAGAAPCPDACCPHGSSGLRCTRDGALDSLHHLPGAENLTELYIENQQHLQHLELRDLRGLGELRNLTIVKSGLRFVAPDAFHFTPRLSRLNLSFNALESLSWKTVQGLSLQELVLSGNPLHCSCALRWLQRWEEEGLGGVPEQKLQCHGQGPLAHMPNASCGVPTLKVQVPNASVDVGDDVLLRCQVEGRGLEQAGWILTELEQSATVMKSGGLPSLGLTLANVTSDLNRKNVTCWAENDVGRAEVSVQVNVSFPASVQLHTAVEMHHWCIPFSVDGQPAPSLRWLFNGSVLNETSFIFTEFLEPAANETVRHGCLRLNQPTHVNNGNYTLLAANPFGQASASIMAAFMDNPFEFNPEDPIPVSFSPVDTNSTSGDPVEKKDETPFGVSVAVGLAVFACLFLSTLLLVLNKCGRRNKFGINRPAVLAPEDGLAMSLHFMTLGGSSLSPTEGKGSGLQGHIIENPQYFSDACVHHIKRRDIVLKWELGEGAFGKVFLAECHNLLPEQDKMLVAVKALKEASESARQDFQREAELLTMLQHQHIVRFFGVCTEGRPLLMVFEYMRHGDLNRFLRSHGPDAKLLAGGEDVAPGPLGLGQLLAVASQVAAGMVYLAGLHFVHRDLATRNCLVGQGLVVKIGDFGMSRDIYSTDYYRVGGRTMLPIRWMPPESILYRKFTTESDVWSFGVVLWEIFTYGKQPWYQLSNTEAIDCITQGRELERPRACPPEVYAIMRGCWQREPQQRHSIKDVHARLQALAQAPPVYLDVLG
The target of test [8] is Proto-oncogene tyrosine-protein kinase receptor Ret (Homo sapiens, UniProt P07949). In words: Inhibition of 5FAM-tagged RET (unknown origin) using 5FAM-EPLYWSFPA as substrate incubated for 60 mins.
Sequence of Proto-oncogene tyrosine-protein kinase receptor Ret (P07949 whole entry): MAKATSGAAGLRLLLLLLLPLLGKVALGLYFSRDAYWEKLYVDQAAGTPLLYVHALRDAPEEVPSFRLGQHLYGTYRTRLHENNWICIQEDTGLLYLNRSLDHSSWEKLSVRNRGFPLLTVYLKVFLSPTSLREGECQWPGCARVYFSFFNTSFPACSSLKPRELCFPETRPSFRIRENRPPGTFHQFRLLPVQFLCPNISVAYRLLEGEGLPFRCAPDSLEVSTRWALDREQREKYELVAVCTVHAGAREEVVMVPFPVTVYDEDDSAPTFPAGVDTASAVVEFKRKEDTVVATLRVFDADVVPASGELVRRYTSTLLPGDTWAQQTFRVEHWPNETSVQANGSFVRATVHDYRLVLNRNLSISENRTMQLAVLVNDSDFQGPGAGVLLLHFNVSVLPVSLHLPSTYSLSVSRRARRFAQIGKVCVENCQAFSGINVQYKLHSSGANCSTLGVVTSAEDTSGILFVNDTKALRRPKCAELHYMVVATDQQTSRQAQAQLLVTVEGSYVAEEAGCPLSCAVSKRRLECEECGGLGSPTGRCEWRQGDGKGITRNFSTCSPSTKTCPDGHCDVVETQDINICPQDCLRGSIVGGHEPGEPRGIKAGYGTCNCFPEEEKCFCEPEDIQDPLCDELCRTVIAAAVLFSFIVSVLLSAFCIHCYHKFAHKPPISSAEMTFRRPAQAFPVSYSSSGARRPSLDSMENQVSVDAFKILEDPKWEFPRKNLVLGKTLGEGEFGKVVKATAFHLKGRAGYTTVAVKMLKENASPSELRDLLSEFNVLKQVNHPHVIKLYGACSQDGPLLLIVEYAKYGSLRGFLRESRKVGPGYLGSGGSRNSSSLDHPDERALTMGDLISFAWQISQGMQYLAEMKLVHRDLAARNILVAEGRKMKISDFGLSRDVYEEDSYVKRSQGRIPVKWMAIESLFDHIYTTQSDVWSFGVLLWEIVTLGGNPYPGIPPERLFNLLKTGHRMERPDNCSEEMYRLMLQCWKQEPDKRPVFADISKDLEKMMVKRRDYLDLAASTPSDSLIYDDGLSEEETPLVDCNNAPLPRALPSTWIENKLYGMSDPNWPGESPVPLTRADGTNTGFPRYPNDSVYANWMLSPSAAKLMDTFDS
Test [9] deals with T1, High affinity nerve growth factor receptor. As to the kind of experiment: Inhibition of TRK autophosphorylation in human KM12 cells at 0.01 to 1 uM measured after 24 hrs by Western blot analysis. It is filed as cell-based. To be noted: dose 0.01-1 µM. In general terms: Immunoblotting shows a protein as a band on a membrane.
Target sequence in this assay (P04629 33-796 limits assumed): as the sequence (P04629 33-796 limits assumed) above
Test [10] shares this target. In words: Inhibition of TRK autophosphorylation in human LC-2-ad cells at 0.01 to 1 uM measured after 24 hrs by Western blot analysis. To be noted: dose 0.01-1 µM. It is filed as cell-based.
Target sequence in this assay (P04629 33-796 limits assumed): as above
In test [11] the test system is KM12. As to the kind of experiment: Induction of cell cycle arrest in human KM12 cells assessed as accumulation of cells at G1 phase at 0.01 uM incubated for 24 hrs by flow cytometry analysis. It is filed as functional, cell-based.
Test [12] relates to LC-2-ad. In words: Induction of cell cycle arrest in human LC-2-ad cells assessed as accumulation of cells at G1 phase at 0.01 uM incubated for 24 hrs by flow cytometry analysis. It is filed as functional, cell-based.
Test [13] has as its system A549. As to the kind of experiment: Induction of cell cycle arrest in human A549 cells assessed as accumulation of cells at G1 phase at 0.01 uM incubated for 24 hrs by flow cytometry analysis. It is filed as functional, cell-based.

On to `COCCn1cc(-c2ccc3c(c2)[nH]c2ncnc(Nc4ccc(CC(=O)Nc5cc(C(C)(C)C)on5)cc4)c23)cn1`, for which the figures for the GC50 in [1], in test [2] and in [3] were 360 nM, 590 nM and 5880 nM, respectively.

As for `Cn1cc(-c2ccc3c(c2)[nH]c2ncnc(Nc4ccc(CC(=O)Nc5cc(C(C)(C)C)on5)cc4)c23)cn1`, the result in test [4] and in [6] was Active. The inhibition entry in test [5] is “Active”.

Regarding `O=C(Cc1ccc(Nc2ncnc3[nH]c4ccccc4c23)cc1)Nc1cccc(C(F)(F)F)c1`, the GC50 was 940 nM in test [1], 490 nM in test [2] and greater than 10000 nM in [3].

As to `Cn1cc(-c2ccc3c(c2)ncn3-c2ccc(CC(=O)Nc3cc(C(C)(C)C)on3)cc2)cn1`, the values for the IC50 in [7] and in test [8] were 1.6 nM and 1 nM, respectively.

Consider `COc1cc2nccc(Oc3ccc(NC(=O)C4(C(=O)Nc5ccc(F)cc5)CC4)cc3)c2cc1OC` [CABOZANTINIB], for which the 50% inhibitory concentration (IC50) in test [7] came to 79 nM.

Consider `Cn1cc(-c2ccc3c(c2)[nH]c2ncnc(Nc4ccc(CC(=O)Nc5cc(C(C)(C)C)nn5C)cc4)c23)cn1`, for which the outcome in test [4] and in test [6] was Active. Besides, the inhibition entry in test [5], in test [9] and in [10] was “Active” in each case.

`C[C@@H]1CCc2ncc(F)cc2[C@H]2CCCN2c2ccn3ncc(c3n2)C(=O)N1` [SELITRECTINIB]: the result in test [11], in test [12] and in test [13] was Active. Also, the GC50 in test [1] was 25980 nM; in [2], 5 nM; in test [3], greater than 40000 nM.

In the case of `CNC(=O)c1cc(Oc2ccc(NC(=O)Nc3ccc(Cl)c(C(F)(F)F)c3)cc2)ccn1` [SORAFENIB], the outcome in [11], in test [12] and in [13] was Active. In addition, the GC50 in [1] was found to be 540 nM; in test [2] it was 3820 nM; in test [3] it was 7200 nM.

As to `Cn1nc(C(C)(C)C)cc1NC(=O)Cc1ccc(Nc2ncnc3[nH]c4ccccc4c23)cc1`, the result in test [4] and in test [6] was Active. The inhibition result in test [5], in test [9] and in test [10] was “Active” in each case.
